Laboratory results reported in ChEMBL document CHEMBL5653631, “A Potent and Selective ULK1 Inhibitor Suppresses Autophagy and Sensitizes Cancer Cells to Nutrient Stress” (iScience, 2018).

Assays:
[1] = target: T1, Ephrin type-A receptor 3 (Homo sapiens) (UniProt P29320); assay: Inhibition of human recombinant EphA3 at 500 nM in presence of ATP by radiometric assay relative to control
T1 sequence (whole entry): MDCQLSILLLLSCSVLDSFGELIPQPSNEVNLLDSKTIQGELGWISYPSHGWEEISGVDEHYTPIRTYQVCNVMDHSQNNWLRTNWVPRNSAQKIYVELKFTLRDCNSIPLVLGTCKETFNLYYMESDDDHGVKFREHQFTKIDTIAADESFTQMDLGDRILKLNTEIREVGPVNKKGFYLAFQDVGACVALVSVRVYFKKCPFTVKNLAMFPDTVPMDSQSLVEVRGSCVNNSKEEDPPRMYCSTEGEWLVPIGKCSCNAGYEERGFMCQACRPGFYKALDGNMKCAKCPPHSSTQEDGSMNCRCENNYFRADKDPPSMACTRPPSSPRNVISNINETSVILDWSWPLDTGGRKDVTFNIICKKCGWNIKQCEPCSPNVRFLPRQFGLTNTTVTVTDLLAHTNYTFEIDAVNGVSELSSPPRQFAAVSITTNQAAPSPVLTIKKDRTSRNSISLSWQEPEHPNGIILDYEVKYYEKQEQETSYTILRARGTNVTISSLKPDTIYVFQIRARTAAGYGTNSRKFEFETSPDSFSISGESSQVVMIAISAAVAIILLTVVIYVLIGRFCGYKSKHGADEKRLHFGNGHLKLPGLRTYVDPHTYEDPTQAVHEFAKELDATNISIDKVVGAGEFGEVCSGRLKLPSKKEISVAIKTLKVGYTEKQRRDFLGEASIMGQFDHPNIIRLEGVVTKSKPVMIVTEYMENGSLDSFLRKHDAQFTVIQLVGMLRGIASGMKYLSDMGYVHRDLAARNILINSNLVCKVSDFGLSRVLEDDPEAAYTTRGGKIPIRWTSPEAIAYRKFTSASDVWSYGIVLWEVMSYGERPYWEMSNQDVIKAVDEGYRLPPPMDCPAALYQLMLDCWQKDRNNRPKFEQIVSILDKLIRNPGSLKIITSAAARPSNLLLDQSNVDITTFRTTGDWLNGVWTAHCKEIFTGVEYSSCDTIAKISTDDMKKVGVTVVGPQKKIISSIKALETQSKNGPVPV

[2] = target: T2, Serine/threonine-protein kinase ICK (Homo sapiens) (UniProt Q9UPZ9); assay: Inhibition of human recombinant ICK at 500 nM in presence of ATP by radiometric assay relative to control
T2 sequence (whole entry): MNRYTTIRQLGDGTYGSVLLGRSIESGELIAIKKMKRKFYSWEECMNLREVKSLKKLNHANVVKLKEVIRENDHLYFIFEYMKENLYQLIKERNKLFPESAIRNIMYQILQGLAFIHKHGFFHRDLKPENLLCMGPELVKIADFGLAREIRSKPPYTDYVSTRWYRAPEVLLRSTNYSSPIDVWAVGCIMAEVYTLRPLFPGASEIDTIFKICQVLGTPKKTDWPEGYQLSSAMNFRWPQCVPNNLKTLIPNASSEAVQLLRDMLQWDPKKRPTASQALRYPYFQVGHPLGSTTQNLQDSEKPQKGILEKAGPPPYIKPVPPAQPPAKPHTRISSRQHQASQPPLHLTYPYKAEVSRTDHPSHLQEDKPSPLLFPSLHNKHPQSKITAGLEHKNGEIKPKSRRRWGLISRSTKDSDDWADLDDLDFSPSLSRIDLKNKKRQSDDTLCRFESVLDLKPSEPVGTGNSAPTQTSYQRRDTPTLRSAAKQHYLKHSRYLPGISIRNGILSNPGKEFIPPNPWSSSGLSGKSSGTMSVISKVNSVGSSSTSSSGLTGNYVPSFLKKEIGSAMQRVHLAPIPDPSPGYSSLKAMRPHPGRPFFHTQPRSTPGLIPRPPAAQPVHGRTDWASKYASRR

[3] = target: Mitogen-activated protein kinase kinase kinase 10 (Homo sapiens) (UniProt Q02779); assay: Inhibition of human recombinant MLK2 at 500 nM in presence of ATP by radiometric assay relative to control
[4] = target: T3, Serine/threonine-protein kinase 3 (Homo sapiens) (UniProt Q13188); assay: Inhibition of human recombinant MST2 at 500 nM in presence of ATP by radiometric assay relative to control
T3 sequence (whole entry): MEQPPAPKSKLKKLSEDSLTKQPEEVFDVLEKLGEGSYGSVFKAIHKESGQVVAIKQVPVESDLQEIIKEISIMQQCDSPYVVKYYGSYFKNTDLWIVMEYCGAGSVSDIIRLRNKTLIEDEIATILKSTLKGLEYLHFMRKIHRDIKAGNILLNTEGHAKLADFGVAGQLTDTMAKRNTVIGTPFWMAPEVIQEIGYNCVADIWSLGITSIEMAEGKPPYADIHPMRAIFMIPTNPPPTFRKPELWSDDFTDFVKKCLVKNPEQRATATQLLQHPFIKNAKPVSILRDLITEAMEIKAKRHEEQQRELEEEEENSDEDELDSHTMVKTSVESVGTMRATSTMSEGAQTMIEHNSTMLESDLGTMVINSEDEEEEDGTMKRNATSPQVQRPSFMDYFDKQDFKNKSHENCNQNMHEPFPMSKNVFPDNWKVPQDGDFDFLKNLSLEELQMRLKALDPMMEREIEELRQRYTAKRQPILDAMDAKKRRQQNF

[5] = target: Cyclin-dependent kinase 13 (Homo sapiens) (UniProt Q14004); assay: Inhibition of human recombinant CHED at 500 nM related to control ULK1
[6] = target: Serine/threonine-protein kinase D2 (Homo sapiens) (UniProt Q9BZL6); assay: Inhibition of human recombinant PKD2 at 500 nM in presence of ATP by radiometric assay relative to control
[7] = target: T4, Calcium/calmodulin-dependent protein kinase type IV (Homo sapiens) (UniProt Q16566); assay: Inhibition of human recombinant CaMK4 at 15 nM in presence of ATP by radiometric assay relative to control
T4 sequence (whole entry): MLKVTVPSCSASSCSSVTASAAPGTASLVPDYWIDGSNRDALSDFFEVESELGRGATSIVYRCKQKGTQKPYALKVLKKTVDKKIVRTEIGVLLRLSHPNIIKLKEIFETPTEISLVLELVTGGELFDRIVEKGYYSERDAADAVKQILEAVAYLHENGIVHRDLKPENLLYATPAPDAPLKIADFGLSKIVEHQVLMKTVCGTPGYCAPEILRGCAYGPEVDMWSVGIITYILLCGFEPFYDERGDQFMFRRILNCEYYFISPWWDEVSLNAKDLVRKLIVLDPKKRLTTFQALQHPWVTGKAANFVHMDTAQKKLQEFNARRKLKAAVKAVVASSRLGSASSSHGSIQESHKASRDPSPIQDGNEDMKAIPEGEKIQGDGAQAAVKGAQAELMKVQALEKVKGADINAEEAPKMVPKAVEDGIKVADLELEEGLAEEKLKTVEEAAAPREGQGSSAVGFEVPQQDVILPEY

[8] = target: T2, Serine/threonine-protein kinase ICK (Homo sapiens); assay: Inhibition of human recombinant ICK at 15 nM related to control ULK1

Mitogen-activated protein kinase kinase kinase 10 (Homo sapiens), sequence (Q02779 whole entry, looked up): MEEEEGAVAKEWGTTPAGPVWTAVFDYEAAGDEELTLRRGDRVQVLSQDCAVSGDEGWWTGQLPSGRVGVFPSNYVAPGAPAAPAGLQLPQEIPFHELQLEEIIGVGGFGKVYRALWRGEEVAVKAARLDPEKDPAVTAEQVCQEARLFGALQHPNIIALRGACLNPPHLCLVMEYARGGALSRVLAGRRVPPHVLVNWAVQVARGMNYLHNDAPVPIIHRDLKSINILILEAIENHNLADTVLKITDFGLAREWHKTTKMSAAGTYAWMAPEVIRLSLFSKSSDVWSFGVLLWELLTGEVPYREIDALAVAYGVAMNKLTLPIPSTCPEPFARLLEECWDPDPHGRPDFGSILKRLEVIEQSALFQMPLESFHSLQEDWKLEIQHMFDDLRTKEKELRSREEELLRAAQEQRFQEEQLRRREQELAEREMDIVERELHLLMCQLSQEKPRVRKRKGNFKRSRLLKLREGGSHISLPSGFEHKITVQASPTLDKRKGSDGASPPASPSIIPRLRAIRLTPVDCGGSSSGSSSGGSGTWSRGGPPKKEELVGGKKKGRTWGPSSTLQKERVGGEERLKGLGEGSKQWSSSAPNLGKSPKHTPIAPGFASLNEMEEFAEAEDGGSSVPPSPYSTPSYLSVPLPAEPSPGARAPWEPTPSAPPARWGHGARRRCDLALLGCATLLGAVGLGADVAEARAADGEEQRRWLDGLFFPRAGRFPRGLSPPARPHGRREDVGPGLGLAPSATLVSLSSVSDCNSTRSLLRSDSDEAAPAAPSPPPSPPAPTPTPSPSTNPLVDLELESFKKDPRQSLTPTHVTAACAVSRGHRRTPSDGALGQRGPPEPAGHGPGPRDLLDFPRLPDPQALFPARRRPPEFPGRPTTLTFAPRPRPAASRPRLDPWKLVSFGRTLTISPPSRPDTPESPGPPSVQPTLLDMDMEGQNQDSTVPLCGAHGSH
Serine/threonine-protein kinase D2 (Homo sapiens), sequence (Q9BZL6 whole entry, looked up): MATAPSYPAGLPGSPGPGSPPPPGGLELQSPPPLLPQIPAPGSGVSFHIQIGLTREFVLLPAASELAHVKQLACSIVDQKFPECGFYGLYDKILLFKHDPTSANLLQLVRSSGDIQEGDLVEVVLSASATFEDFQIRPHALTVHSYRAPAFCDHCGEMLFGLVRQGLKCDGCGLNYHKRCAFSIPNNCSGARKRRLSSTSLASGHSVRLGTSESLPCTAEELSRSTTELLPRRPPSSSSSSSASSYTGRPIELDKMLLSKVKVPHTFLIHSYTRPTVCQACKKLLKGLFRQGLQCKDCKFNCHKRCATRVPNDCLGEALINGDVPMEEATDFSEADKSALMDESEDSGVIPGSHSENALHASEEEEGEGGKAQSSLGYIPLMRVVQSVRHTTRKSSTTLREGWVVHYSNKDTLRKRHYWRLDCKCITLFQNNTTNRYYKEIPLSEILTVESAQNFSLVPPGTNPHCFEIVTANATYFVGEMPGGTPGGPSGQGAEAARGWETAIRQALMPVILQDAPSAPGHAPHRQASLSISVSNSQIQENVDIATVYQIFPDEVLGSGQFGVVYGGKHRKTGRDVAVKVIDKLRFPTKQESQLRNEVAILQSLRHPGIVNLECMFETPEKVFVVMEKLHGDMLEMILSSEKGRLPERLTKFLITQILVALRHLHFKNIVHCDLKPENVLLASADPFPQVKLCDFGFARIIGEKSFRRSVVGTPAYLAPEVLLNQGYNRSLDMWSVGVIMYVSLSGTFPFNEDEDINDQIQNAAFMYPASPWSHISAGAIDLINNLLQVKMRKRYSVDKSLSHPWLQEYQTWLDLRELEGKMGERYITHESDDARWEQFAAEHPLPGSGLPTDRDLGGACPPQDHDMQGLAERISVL
Cyclin-dependent kinase 13 (Homo sapiens), sequence (Q14004 whole entry, looked up): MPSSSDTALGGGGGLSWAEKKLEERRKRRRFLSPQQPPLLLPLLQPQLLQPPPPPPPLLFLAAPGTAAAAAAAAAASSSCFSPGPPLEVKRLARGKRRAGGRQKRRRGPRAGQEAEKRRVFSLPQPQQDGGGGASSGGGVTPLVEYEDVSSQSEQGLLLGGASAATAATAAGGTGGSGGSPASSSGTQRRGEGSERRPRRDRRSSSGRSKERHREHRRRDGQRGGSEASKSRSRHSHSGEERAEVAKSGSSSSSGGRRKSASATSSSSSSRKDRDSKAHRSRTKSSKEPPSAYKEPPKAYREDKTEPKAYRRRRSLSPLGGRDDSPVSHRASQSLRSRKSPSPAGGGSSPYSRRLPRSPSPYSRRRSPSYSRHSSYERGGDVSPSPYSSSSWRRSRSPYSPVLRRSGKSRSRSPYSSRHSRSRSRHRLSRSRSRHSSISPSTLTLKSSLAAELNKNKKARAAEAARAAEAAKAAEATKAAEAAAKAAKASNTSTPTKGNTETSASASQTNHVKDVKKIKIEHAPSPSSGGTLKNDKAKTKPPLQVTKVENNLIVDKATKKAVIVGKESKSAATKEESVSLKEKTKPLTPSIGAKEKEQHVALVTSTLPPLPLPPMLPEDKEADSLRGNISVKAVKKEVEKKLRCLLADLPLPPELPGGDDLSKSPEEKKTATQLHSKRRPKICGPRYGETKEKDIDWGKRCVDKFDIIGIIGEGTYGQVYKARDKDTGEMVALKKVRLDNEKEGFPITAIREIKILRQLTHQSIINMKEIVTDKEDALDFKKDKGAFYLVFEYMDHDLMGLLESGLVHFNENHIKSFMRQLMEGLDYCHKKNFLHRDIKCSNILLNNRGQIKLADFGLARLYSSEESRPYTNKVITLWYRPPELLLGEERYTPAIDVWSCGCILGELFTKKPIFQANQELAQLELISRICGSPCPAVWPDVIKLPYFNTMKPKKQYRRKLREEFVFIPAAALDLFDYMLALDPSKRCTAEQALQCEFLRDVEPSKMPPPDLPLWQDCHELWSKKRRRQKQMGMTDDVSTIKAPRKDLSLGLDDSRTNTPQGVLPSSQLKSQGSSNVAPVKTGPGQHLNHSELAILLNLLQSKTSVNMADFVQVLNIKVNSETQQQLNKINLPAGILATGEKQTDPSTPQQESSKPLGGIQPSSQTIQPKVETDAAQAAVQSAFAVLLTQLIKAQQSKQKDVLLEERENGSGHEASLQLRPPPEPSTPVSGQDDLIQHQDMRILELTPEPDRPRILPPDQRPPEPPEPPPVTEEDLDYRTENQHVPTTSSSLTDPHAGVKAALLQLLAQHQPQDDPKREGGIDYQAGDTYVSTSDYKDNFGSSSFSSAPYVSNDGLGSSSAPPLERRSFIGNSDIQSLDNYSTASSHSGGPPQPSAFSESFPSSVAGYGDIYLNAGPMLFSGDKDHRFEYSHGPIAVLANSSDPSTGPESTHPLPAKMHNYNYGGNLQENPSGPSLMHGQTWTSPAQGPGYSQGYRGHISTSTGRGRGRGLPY

inhibition [1] [%] | inhibition [2] [%] | inhibition [3] [%] | inhibition [4] [%] | fold change (FC) [5] | inhibition [6] [%] | inhibition [7] [%] | fold change (FC) [8] | Structure (SMILES)
11 | 3 | 70 | 0 | 0 | 12 |  |  | CNC(=O)c1ccccc1Oc1nc(Nc2cc(OC)c(OC)c(OC)c2)ncc1Br
 |  |  |  |  |  | 0 | 0 | CC(C)[C@H](NC(=O)c1cc(-c2cnn3cc(-c4ccc(OCCN5CCCCC5)cc4)cnc23)cs1)C(F)(F)F
